Each structure is given as a SMILES string.

The record followed here is ChEMBL document CHEMBL5303573, “Mapping human microbiome drug metabolism by gut bacteria and their genes” (Nature, 2019).

A short description of the first series: The drug is tested on Bifidobacterium breve strain: DSM20213 for biotransformation. The drug concentrations were measured before and after a 12-h incubation by liquid-chromatography-coupled mass spectrometry (LC–MS). The settings on record: 2 µM.
Consider `CCN(CC)C(=O)/C(C#N)=C/c1cc(O)c(O)c([N+](=O)[O-])c1` [ENTACAPONE], for which the “Bacterial Biotransformation” value was “Compound metabolized”.
On the same count and under the same terms, the same measure for `CN1CCc2cccc3c2[C@H]1Cc1ccc(O)c(O)c1-3` [APOMORPHINE]: “Compound NOT metabolized”; for `N[C@@H](Cc1ccc(N(CCCl)CCCl)cc1)C(=O)O`: “Compound metabolized”.

The nature of a further series: The drug is tested on Collinsella intestinalis strain: DSM13280 for biotransformation. The drug concentrations were measured before and after a 12-h incubation by liquid-chromatography-coupled mass spectrometry (LC–MS). Conditions: 2 µM.
Consider `CCN(CC)C(=O)/C(C#N)=C/c1cc(O)c(O)c([N+](=O)[O-])c1` [ENTACAPONE], for which the “Bacterial Biotransformation” value is listed as “Compound metabolized”.
With `CN1CCc2cccc3c2[C@H]1Cc1ccc(O)c(O)c1-3` [APOMORPHINE], the “Bacterial Biotransformation” value is “Compound NOT metabolized”.
Still for that read-out and setting: then `N[C@@H](Cc1ccc(N(CCCl)CCCl)cc1)C(=O)O`, with “Compound metabolized”.

The next series can be described thus: The drug is tested on Bacteroides cellulosilyticus strain: DSM14838 for biotransformation. The drug concentrations were measured before and after a 12-h incubation by liquid-chromatography-coupled mass spectrometry (LC–MS). The settings on record: 2 µM.
Take `CCN(CC)C(=O)/C(C#N)=C/c1cc(O)c(O)c([N+](=O)[O-])c1` [ENTACAPONE]: the “Bacterial Biotransformation” value was “Compound metabolized”.
Still for that read-out and setting: then `CN1CCc2cccc3c2[C@H]1Cc1ccc(O)c(O)c1-3` [APOMORPHINE], with “Compound NOT metabolized”; and `N[C@@H](Cc1ccc(N(CCCl)CCCl)cc1)C(=O)O`, with “Compound metabolized”.

The next series is described as follows: The drug is tested on Bacteroides fragilis strain: HMW610 for biotransformation. The drug concentrations were measured before and after a 12-h incubation by liquid-chromatography-coupled mass spectrometry (LC–MS). Conditions: 2 µM.
As for `CCN(CC)C(=O)/C(C#N)=C/c1cc(O)c(O)c([N+](=O)[O-])c1` [ENTACAPONE], the “Bacterial Biotransformation” value is reported as “Compound metabolized”.
Same read-out and setting: then `CN1CCc2cccc3c2[C@H]1Cc1ccc(O)c(O)c1-3` [APOMORPHINE], with “Compound NOT metabolized”.
With `N[C@@H](Cc1ccc(N(CCCl)CCCl)cc1)C(=O)O`, the “Bacterial Biotransformation” value is reported as “Compound metabolized”.

The nature of the next series: The drug is tested on Bacteroides vulgatus strain: ATCC8482 for biotransformation. The drug concentrations were measured before and after a 12-h incubation by liquid-chromatography-coupled mass spectrometry (LC–MS). The settings on record: phocaeicola vulgatus, 2 µM.
On to `CCN(CC)C(=O)/C(C#N)=C/c1cc(O)c(O)c([N+](=O)[O-])c1` [ENTACAPONE], for which the “Bacterial Biotransformation” value is “Compound metabolized”.
On the same count and under the same terms, then `CN1CCc2cccc3c2[C@H]1Cc1ccc(O)c(O)c1-3` [APOMORPHINE], with “Compound NOT metabolized”; and `N[C@@H](Cc1ccc(N(CCCl)CCCl)cc1)C(=O)O`, with “Compound metabolized”.

A short description of the next series: The drug is tested on Bacteroides sp. WH2 strain: WH2 for biotransformation. The drug concentrations were measured before and after a 12-h incubation by liquid-chromatography-coupled mass spectrometry (LC–MS). The settings on record: bacteroides sp. wh2, 12 h, 2 µM.
For the compound `CCN(CC)C(=O)/C(C#N)=C/c1cc(O)c(O)c([N+](=O)[O-])c1` [ENTACAPONE], the “Bacterial Biotransformation” value is given as “Compound metabolized”.
As for `CN1CCc2cccc3c2[C@H]1Cc1ccc(O)c(O)c1-3` [APOMORPHINE], the “Bacterial Biotransformation” value is given as “Compound NOT metabolized”.
Regarding `N[C@@H](Cc1ccc(N(CCCl)CCCl)cc1)C(=O)O`, the “Bacterial Biotransformation” value is reported as “Compound metabolized”.

Another series can be described thus: The drug is tested on Blautia hansenii strain: DSM20583 for biotransformation. The drug concentrations were measured before and after a 12-h incubation by liquid-chromatography-coupled mass spectrometry (LC–MS). The settings on record: 2 µM.
For the compound `CCN(CC)C(=O)/C(C#N)=C/c1cc(O)c(O)c([N+](=O)[O-])c1` [ENTACAPONE], the “Bacterial Biotransformation” value is “Compound metabolized”.
`CN1CCc2cccc3c2[C@H]1Cc1ccc(O)c(O)c1-3` [APOMORPHINE]: the “Bacterial Biotransformation” value is “Compound NOT metabolized”.
On the same count and under the same terms, then `N[C@@H](Cc1ccc(N(CCCl)CCCl)cc1)C(=O)O`, with “Compound metabolized”.

Another series is described as follows: The drug is tested on Blautia luti strain: DSM14534 for biotransformation. The drug concentrations were measured before and after a 12-h incubation by liquid-chromatography-coupled mass spectrometry (LC–MS). On the set-up: dose 2 uM, timepoint 0 vs 12 hours. The settings on record: 2 µM. Format: ADME.
Regarding `CCN(CC)C(=O)/C(C#N)=C/c1cc(O)c(O)c([N+](=O)[O-])c1` [ENTACAPONE], the “Bacterial Biotransformation” value is “Compound metabolized”.
Consider `CN1CCc2cccc3c2[C@H]1Cc1ccc(O)c(O)c1-3` [APOMORPHINE], for which the “Bacterial Biotransformation” value is on record as “Compound NOT metabolized”.
Turning to `N[C@@H](Cc1ccc(N(CCCl)CCCl)cc1)C(=O)O`, the “Bacterial Biotransformation” value is given as “Compound metabolized”.

The next series is described as follows: The drug is tested on Clostridium asparagiforme strain: DSM15981 for biotransformation. The drug concentrations were measured before and after a 12-h incubation by liquid-chromatography-coupled mass spectrometry (LC–MS). Conditions: enterocloster asparagiformis, 2 µM. On the set-up: dose 2 uM, timepoint 0 vs 12 hours. The format is ADME.
`CCN(CC)C(=O)/C(C#N)=C/c1cc(O)c(O)c([N+](=O)[O-])c1` [ENTACAPONE]: the “Bacterial Biotransformation” value was “Compound metabolized”.
On to `CN1CCc2cccc3c2[C@H]1Cc1ccc(O)c(O)c1-3` [APOMORPHINE], for which the “Bacterial Biotransformation” value is given as “Compound NOT metabolized”.
Same read-out and setting: the same measure for `N[C@@H](Cc1ccc(N(CCCl)CCCl)cc1)C(=O)O`: “Compound metabolized”.

A further series can be described thus: The drug is tested on Dorea formicigenerans strain: ATCC27755 for biotransformation. The drug concentrations were measured before and after a 12-h incubation by liquid-chromatography-coupled mass spectrometry (LC–MS). Conditions: 2 µM.
`CCN(CC)C(=O)/C(C#N)=C/c1cc(O)c(O)c([N+](=O)[O-])c1` [ENTACAPONE]: the “Bacterial Biotransformation” value is on record as “Compound metabolized”.
Same read-out and setting: the same measure for `CN1CCc2cccc3c2[C@H]1Cc1ccc(O)c(O)c1-3` [APOMORPHINE]: “Compound NOT metabolized”; for `N[C@@H](Cc1ccc(N(CCCl)CCCl)cc1)C(=O)O`: “Compound metabolized”.

The next series in a line: The drug is tested on Eubacterium ventriosum strain: ATCC27560 for biotransformation. The drug concentrations were measured before and after a 12-h incubation by liquid-chromatography-coupled mass spectrometry (LC–MS). Format: ADME. On the set-up: dose 2 uM, timepoint 0 vs 12 hours. Conditions: 2 µM.
Take `CCN(CC)C(=O)/C(C#N)=C/c1cc(O)c(O)c([N+](=O)[O-])c1` [ENTACAPONE]: the “Bacterial Biotransformation” value was “Compound metabolized”.
Take `CN1CCc2cccc3c2[C@H]1Cc1ccc(O)c(O)c1-3` [APOMORPHINE]: the “Bacterial Biotransformation” value is recorded as “Compound NOT metabolized”.
Still for that read-out and setting: then `N[C@@H](Cc1ccc(N(CCCl)CCCl)cc1)C(=O)O`, with “Compound metabolized”.

The nature of the next series: The drug is tested on Subdoligranulum variabile strain: DSM15176 for biotransformation. The drug concentrations were measured before and after a 12-h incubation by liquid-chromatography-coupled mass spectrometry (LC–MS). Conditions: 2 µM.
Regarding `CCN(CC)C(=O)/C(C#N)=C/c1cc(O)c(O)c([N+](=O)[O-])c1` [ENTACAPONE], the “Bacterial Biotransformation” value was “Compound metabolized”.
`CN1CCc2cccc3c2[C@H]1Cc1ccc(O)c(O)c1-3` [APOMORPHINE]: the “Bacterial Biotransformation” value is listed as “Compound NOT metabolized”.
On the same count and under the same terms, then `N[C@@H](Cc1ccc(N(CCCl)CCCl)cc1)C(=O)O`, with “Compound metabolized”.

A short description of another series: The drug is tested on Escherichia coli strain: BW25113 for biotransformation. The drug concentrations were measured before and after a 12-h incubation by liquid-chromatography-coupled mass spectrometry (LC–MS). The settings on record: 2 µM.
In the case of `CCN(CC)C(=O)/C(C#N)=C/c1cc(O)c(O)c([N+](=O)[O-])c1` [ENTACAPONE], the “Bacterial Biotransformation” value was “Compound metabolized”.
Still for that read-out and setting: the same measure for `CN1CCc2cccc3c2[C@H]1Cc1ccc(O)c(O)c1-3` [APOMORPHINE]: “Compound NOT metabolized”.
Same read-out and setting: the same measure for `N[C@@H](Cc1ccc(N(CCCl)CCCl)cc1)C(=O)O`: “Compound metabolized”.

The conditions of a further series: bacteroides eggerthii, 12 h, 2 µM.
Description: The drug is tested on Bacteroides eggerthii strain: DSM20697 for biotransformation. The drug concentrations were measured before and after a 12-h incubation by liquid-chromatography-coupled mass spectrometry (LC–MS)
Take `CCN(CC)C(=O)/C(C#N)=C/c1cc(O)c(O)c([N+](=O)[O-])c1` [ENTACAPONE]: the “Bacterial Biotransformation” value is “Compound metabolized”.
Same read-out and setting: then `CN1CCc2cccc3c2[C@H]1Cc1ccc(O)c(O)c1-3` [APOMORPHINE], with “Compound NOT metabolized”.
As to `N[C@@H](Cc1ccc(N(CCCl)CCCl)cc1)C(=O)O`, the “Bacterial Biotransformation” value was “Compound metabolized”.

For a further series the following is noted: bacteroides thetaiotaomicron, 12 h, 2 µM.
Description: The drug is tested on Bacteroides thetaiotaomicron strain: VPI-5482 for biotransformation. The drug concentrations were measured before and after a 12-h incubation by liquid-chromatography-coupled mass spectrometry (LC–MS)
As to `CCN(CC)C(=O)/C(C#N)=C/c1cc(O)c(O)c([N+](=O)[O-])c1` [ENTACAPONE], the “Bacterial Biotransformation” value was “Compound metabolized”.
`CN1CCc2cccc3c2[C@H]1Cc1ccc(O)c(O)c1-3` [APOMORPHINE]: the “Bacterial Biotransformation” value is on record as “Compound NOT metabolized”.
On the same count and under the same terms, then `N[C@@H](Cc1ccc(N(CCCl)CCCl)cc1)C(=O)O`, with “Compound metabolized”.

The conditions of a further series: bacteroides thetaiotaomicron, 12 h, 2 µM. This is another data set of the same source.
Description: The drug is tested on Bacteroides thetaiotaomicron strain: 7330 for biotransformation. The drug concentrations were measured before and after a 12-h incubation by liquid-chromatography-coupled mass spectrometry (LC–MS)
For `CCN(CC)C(=O)/C(C#N)=C/c1cc(O)c(O)c([N+](=O)[O-])c1` [ENTACAPONE], the “Bacterial Biotransformation” value is given as “Compound metabolized”.
Consider `CN1CCc2cccc3c2[C@H]1Cc1ccc(O)c(O)c1-3` [APOMORPHINE], for which the “Bacterial Biotransformation” value was “Compound NOT metabolized”.
For the compound `N[C@@H](Cc1ccc(N(CCCl)CCCl)cc1)C(=O)O`, the “Bacterial Biotransformation” value is reported as “Compound metabolized”.

For the next series the following is noted: segatella copri, 12 h, 2 µM.
Description: The drug is tested on Prevotella copri strain: DSM18205 for biotransformation. The drug concentrations were measured before and after a 12-h incubation by liquid-chromatography-coupled mass spectrometry (LC–MS)
`CCN(CC)C(=O)/C(C#N)=C/c1cc(O)c(O)c([N+](=O)[O-])c1` [ENTACAPONE]: the “Bacterial Biotransformation” value is recorded as “Compound metabolized”.
Still for that read-out and setting: the same measure for `CN1CCc2cccc3c2[C@H]1Cc1ccc(O)c(O)c1-3` [APOMORPHINE]: “Compound NOT metabolized”.
Take `N[C@@H](Cc1ccc(N(CCCl)CCCl)cc1)C(=O)O`: the “Bacterial Biotransformation” value was “Compound metabolized”.

The conditions of the next series: roseburia intestinalis, 12 h, 2 µM.
Description: The drug is tested on Roseburia intestinalis strain: L1-82 for biotransformation. The drug concentrations were measured before and after a 12-h incubation by liquid-chromatography-coupled mass spectrometry (LC–MS)
As to `CCN(CC)C(=O)/C(C#N)=C/c1cc(O)c(O)c([N+](=O)[O-])c1` [ENTACAPONE], the “Bacterial Biotransformation” value is “Compound metabolized”.
Same read-out and setting: then `CN1CCc2cccc3c2[C@H]1Cc1ccc(O)c(O)c1-3` [APOMORPHINE], with “Compound NOT metabolized”; and `N[C@@H](Cc1ccc(N(CCCl)CCCl)cc1)C(=O)O`, with “Compound metabolized”.

For another series the following is noted: victivallis vadensis, 12 h, 2 µM.
Description: The drug is tested on Victivallis vadensis strain: ATCC BAA-548 for biotransformation. The drug concentrations were measured before and after a 12-h incubation by liquid-chromatography-coupled mass spectrometry (LC–MS)
As for `CCN(CC)C(=O)/C(C#N)=C/c1cc(O)c(O)c([N+](=O)[O-])c1` [ENTACAPONE], the “Bacterial Biotransformation” value is given as “Compound metabolized”.
For the compound `CN1CCc2cccc3c2[C@H]1Cc1ccc(O)c(O)c1-3` [APOMORPHINE], the “Bacterial Biotransformation” value was “Compound NOT metabolized”.
As for `N[C@@H](Cc1ccc(N(CCCl)CCCl)cc1)C(=O)O`, the “Bacterial Biotransformation” value is “Compound metabolized”.

For a further series the following is noted: akkermansia muciniphila, 12 h, 2 µM.
Description: The drug is tested on Akkermansia muciniphila strain: ATCC BAA-835 for biotransformation. The drug concentrations were measured before and after a 12-h incubation by liquid-chromatography-coupled mass spectrometry (LC–MS)
As to `CCN(CC)C(=O)/C(C#N)=C/c1cc(O)c(O)c([N+](=O)[O-])c1` [ENTACAPONE], the “Bacterial Biotransformation” value is listed as “Compound metabolized”.
As to `CN1CCc2cccc3c2[C@H]1Cc1ccc(O)c(O)c1-3` [APOMORPHINE], the “Bacterial Biotransformation” value is recorded as “Compound NOT metabolized”.
For `N[C@@H](Cc1ccc(N(CCCl)CCCl)cc1)C(=O)O`, the “Bacterial Biotransformation” value is “Compound metabolized”.
